Assay results taken from patent US12419976B2, “Hybrid tracers for targeted cancer imaging and treatment” (ACADEMISCH ZIEKENHUIS LEIDEN (H.O.D.N. LUMC), priority 2018, dated 2025).

Tests used:
PSMA = target: T1, PSMA (Homo sapiens, UniProt Q04609); assay: Competitive binding assay, LNCaP cells, EuK[125I]I-BA radioligand; conditions: human LNCaP cells, EuK[125I]I-BA competitive radioligand; n ≥ 3; read-out: IC50 (PSMA affinity)
T1 construct: endogenous in cells; host or cells: LNCaP cells
Method: Fluoresence confocal microscopy was utilised as a tool for receptor localisation. As depicted in FIG. 3, a typical PSMA-targeting tracer brightly stains the extracellular receptor. IC50 was determined in a competitive binding assay using human LNCaP cells and EuK[^125I]I-BA as competitive radioligand.

[1] = Lipophilicity logP(o/w) of 99mTc-labeled hybrid tracers; type: physicochemical; conditions: octanol/water, n = 6
[2] = Photophysical properties of Cy5 dyes and hybrid tracers in PBS; type: physicochemical; conditions: for Brightness: determined using the ε of the hybrid tracer's corresponding fluorophore
Method: The brightness of a dye—one of the most important photophysical characteristics in a clinical setting—is the product of its molar extinction coefficient (e) and quantum yield (ϕF). We therefore set out to determine the e of each fluorophore by creating a linear concentration range (7.5-0.25 μM) in PBS and measuring the corresponding absorbance (Table 1). The addition of a sulfonate on the carboxylic-acid-containing indoline moiety diminishes the epsilon and the use of extra aryl moieties on the cyanine backbone greatly diminishes the dyes' solvability and thus their epsilon is greatly diminished as well.
The ϕF of a fluorophore is the relation between the number of photons emitted divided by the number of photons absorbed by a single molecule. It is therefore also called the emission efficiency. […] Perhaps an asymmetrical cyanine core, with its significant electron density imbalance, is an inefficient fluorophore. In line with our expectations-since the benzo[e]indole caused J-aggregate formation, the ϕF of benzo[e]indole-containing fluorophores were diminished. […] The only trend derived from the abovementioned data is that the free fluorophore benefits (when optimising emission efficiency) from symmetrical substituents on the cyanine structure.
As the brightness of a fluorophore (or hybrid tracer) is one of its most important photophysical traits, we calculated the brightness for all fluorophores. In order to give insight in the hybrid tracer's optical performance, the brightness was determined by using the ε of its corresponding fluorophore in PBS. […] EuK(SO3)-Cy5-MAS3 thus contains the most favourable photophysical characteristics out of these 6 exemplary hybrid tracers.

[3] = Stability in serum at 37° C., absorbance and fluorescence after 24 h; type: in vitro ADME; conditions: for Serum stability after 24 h, remaining absorbance / Serum stability after 24 h, remaining fluorescence: n = 2
Method: Not only serum binding, but also the stability in serum is valuable. This characteristic is another brick in the wall for the preclinical evaluation of hybrid tracers since this indicates a compound's in vivo stability. Clearly, any compound degrading in an in vivo environment is not suited for clinical use. All hybrid tracers were incubated in serum at 37° C. and their absorbance and fluorescence were measured after 24 h.

serum albumin = serum albumin (Homo sapiens, UniProt P02768); assay: Plasma protein binding (serum binding); type: in vitro ADME; conditions: for Plasma protein binding (PPB): FIG. 2A; for fraction unbound: serum albumin, n = 3 (Table 3)
Chain of serum albumin (P02768 25-609): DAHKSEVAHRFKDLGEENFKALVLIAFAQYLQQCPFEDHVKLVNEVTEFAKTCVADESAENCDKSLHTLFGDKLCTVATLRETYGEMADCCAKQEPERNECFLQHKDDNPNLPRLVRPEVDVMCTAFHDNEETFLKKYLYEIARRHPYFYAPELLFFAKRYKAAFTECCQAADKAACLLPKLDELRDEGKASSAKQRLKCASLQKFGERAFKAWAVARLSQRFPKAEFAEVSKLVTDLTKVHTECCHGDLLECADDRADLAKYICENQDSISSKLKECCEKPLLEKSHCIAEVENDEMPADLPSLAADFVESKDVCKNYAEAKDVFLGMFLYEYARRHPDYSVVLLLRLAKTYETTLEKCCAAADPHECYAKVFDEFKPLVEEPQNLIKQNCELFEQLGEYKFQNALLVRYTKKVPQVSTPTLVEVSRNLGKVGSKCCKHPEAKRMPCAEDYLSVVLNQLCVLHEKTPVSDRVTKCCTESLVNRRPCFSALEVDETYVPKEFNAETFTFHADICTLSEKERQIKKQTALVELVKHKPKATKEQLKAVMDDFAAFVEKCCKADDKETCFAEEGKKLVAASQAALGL
Excerpt: FIG. 2 illustrates the results for plasma protein interaction assays for exemplary hybrid tracer compounds. A) Plasma protein binding as a percentage of the indicated hybrid tracers bound to serum albumin. All hybrid tracers portray significant differences (p<0.05) except when noted (ns).
Serum binding, or rather plasma protein binding (PPB) is a useful pharmacokinetic characteristic for the initial assessment of tracer candidates prior to in vivo use as PPB is directly related to, e.g., blood retention and clearance rates. All hybrid tracers have PPB with values between 52-89% with an average of 76±12% (FIG. 2A). The benzo[e]indole-containing hybrid tracers (EuK(Ar)-Cy5-MAS3, EuK-Cy5-(Ar)MAS3 and EuK(Ar)Cy5-(Ar)MAS3) tend to have the highest PPB. […] This can be explained by Sudlow's site, a binding pocket in albumin's subdomain IIA, which binds bulky heterocyclic anions. No clear correlation could be found between c log D and serum binding. Even though PPB has a relation to the lipophilicity, it was expected that we could not predict the PPB based on the c log D as the PPB cannot be explained by a single physiochemical characteristic.

[4] = test system: orthotopically transplanted PC346C cells; assay: In vivo SPECT imaging in tumour-bearing mice; conditions: tumour-bearing nude BALB/c mice, FIG. 4A
Method: (§1) A) In vivo SPECT imaging. Coronal SPECT imaging image of prostate tumour-bearing mice injected with either one of the PSMA hybrid tracer analogues. Organs are denoted as Lu (lungs), Li (liver), G (gallbladder), S (spleen), K (kidneys), B (bladder) and T (tumour). B) Comparison of biodistribution of the hybrid tracer matrix compared to the clinically approved tracer PSMA I&S, with C) providing the biodistribution of hybrid tracer EUK(SO3)—CY5-MAS3. Biodistribution pattern at 2 h post injection of the different hybrid tracers from the matrix compared to the reference tracer PSMA I&S depicted as percentage of the injected dose per gram tissue (% ID/g).
(§2) The in vivo characteristics were investigated in male BALB/c nude mice using orthotopically transplanted PC346C cells. These mice were analysed in various ways, i.e., in vivo nuclear imaging (SPECT) in tumour-bearing mice, in vivo optical imaging (fluorescence imaging) in tumour-bearing mice, ex vivo biodistribution (percentage injected dose per gram (% ID/g)) in healthy and tumour-bearing mice and ex vivo fluorescence imaging.

[5] = test system: orthotopically transplanted PC346C cells; assay: Ex vivo biodistribution in tumour-bearing mice
Method: as §1
FIG. 5 illustrates biodistribution parameters and tumour uptake for exemplary hybrid tracers. Overview of A) the % Injected activity found in all excised organs percentage of the injected activity that remained at 2 h post tracer injection (all ns), B) the amount of radioactivity still present in the blood pool and C) no significant differences in hepatic clearance between the compounds. To highlight the visibility of the tumour over background tissue notorious for occluding signal within the area of the prostate, the D) tumour-to-fat and E) the tumour-to-blood ratio are provided for the individual hybrid tracers. Significance portrayed as: nothing (non-significant) *(p≤0.05) **(p≤0.01) ***(p≤0.001).
as §2

T1 sequence (Q04609 whole entry): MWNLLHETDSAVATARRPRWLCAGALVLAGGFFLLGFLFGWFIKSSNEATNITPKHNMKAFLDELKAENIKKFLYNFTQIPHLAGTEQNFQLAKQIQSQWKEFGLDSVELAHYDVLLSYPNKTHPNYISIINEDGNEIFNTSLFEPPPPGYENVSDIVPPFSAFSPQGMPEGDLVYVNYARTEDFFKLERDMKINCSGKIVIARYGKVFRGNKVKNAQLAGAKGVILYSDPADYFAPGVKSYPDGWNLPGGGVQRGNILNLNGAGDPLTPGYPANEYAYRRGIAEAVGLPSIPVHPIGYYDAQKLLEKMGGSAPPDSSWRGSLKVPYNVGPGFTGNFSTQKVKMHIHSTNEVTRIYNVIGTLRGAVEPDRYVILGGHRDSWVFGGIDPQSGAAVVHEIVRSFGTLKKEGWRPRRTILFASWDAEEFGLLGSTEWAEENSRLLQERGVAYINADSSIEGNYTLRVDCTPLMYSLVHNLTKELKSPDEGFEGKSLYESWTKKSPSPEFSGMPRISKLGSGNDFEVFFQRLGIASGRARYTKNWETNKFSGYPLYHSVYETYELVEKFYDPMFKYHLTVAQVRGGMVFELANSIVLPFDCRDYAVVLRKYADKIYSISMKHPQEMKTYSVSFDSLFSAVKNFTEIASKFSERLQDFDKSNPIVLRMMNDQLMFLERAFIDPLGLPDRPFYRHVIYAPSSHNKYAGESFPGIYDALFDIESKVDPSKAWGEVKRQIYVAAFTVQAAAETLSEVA

Row | SMILES | IC50 (PSMA) [nM] | logP [1] | Stokes shift [2] [nm] | ΦF (quantum yield) [2] [%] | λem [2] [nm] | λex [2] [nm] | Brightness [2] | Serum stability after 24 h, remaining absorbance [3] [% remaining] | Serum stability after 24 h, remaining fluorescence [3] [% remaining] | Plasma protein binding (PPB) (serum albumin) | fraction unbound (serum albumin) | Nuclear (SPECT) imaging of the tumour [4] | Tumour-to-fat ratio (T/F) ([5]; FIG. 5D) | Hepatic clearance ([5]; FIG. 5C, in %ID/g) | Serum stability (comparison between tracers) ([3]; p<0.05)
1 | CC(=O)SCC(=O)NC(CO)C(=O)NC(CO)C(=O)NC(CO)C(=O)NCCCCCC(=O)NCCCCN1C(=CC=CC=CC2=[N+](CCCCCC(=O)NCCCCC(NC(=O)NC(CCC(=O)O)C(=O)O)C(=O)O)c3ccccc3C2(C)C)C(C)(C)c2c1ccc1ccccc21 (stereo not shown) [EuK-Cy5-(Ar)MAS3] | 164 ± 76.9 | -1.84 ± 0.06 | 17 | 9 | 680 | 663 | 5^‡ 10^3 M^−1 · cm^−1 | 75 ± 0 | 76 ± 0 | highest PPB | 0.11 |  |  |  | 
2 | CC(=O)SCC(=O)NC(CO)C(=O)NC(CO)C(=O)NC(CO)C(=O)NCCCCCC(=O)NCCCCN1C(=CC=CC=CC2=[N+](CCCCCC(=O)NCCCCC(NC(=O)NC(CCC(=O)O)C(=O)O)C(=O)O)c3ccccc3C2(C)C)C(C)(C)c2cc(S(=O)(=O)[O-])ccc21 (stereo not shown) [EuK-Cy5-(SO3)MAS3] | 119 ± 117 | -2.7 ± 0.01 | 16 | 7 | 664 | 648 | 10^‡ 10^3 M^−1 · cm^−1 | 82 ± 7 | 85 ± 1 | significantly higher than the PPB of EuK-Cy5-MAS3 | 0.126 | clear nuclear imaging of the tumour | 2658±659 |  | 
3 | CC(=O)SCC(=O)NC(CO)C(=O)NC(CO)C(=O)NC(CO)C(=O)NCCCCCC(=O)NCCCCN1C(=CC=CC=CC2=[N+](CCCCCC(=O)NCCCCC(NC(=O)NC(CCC(=O)O)C(=O)O)C(=O)O)c3ccc4ccccc4c3C2(C)C)C(C)(C)c2c1ccc1ccccc21 (stereo not shown) [EuK(Ar)-Cy5-(Ar)MAS3] | 345 |  | 18 | 14 | 700 | 682 | 7^‡ 10^3 M^−1 · cm^−1 |  |  | highest PPB |  | clear nuclear imaging of the tumour |  | 0.87±0.66 | significantly lower serum stability
